In the OPERA property sets (Mansouri et al. 2018):
Values after ≈ are worked out from the molar mass of the structure shown.

Details: not given
With `COCCNC(=O)CSP(=S)(OC)OC` the solubility was 73200 µM (≈ 20000 µg/mL).
For `CCCN(CCC)c1c([N+](=O)[O-])cc(C)cc1[N+](=O)[O-]`, the solubility was 1080 µM (≈ 304 µg/mL).
In the case of `CCOP(=O)(OCC)Oc1cc(C)[nH]n1`, the solubility is reported as 4270 µM (≈ 1000 µg/mL).
In the case of `C=C(C)C(=O)Nc1ccc(Cl)c(Cl)c1`, the solubility is reported as 36.9 µM (≈ 8.5 µg/mL).
Work on `O=C(NN=C1C=CC(=NO)C=C1)c1ccccc1` yielded a solubility of 20.7 µM (≈ 5 µg/mL).
`O=c1[nH]cc(Br)c(=O)[nH]1` gave a solubility of 4270 µM (≈ 815 µg/mL).

Same assay, conditions: 20 °C
In the case of `c1cc[n+]2c(c1)-c1cccc[n+]1CC2`, the solubility is reported as 376 µM.

Same assay, conditions: 21 °C
`CNc1nc(NC(C)C)nc(OC)n1` showed a solubility of 17700 µM (≈ 3500 µg/mL).

Same assay, conditions: 25 °C
With `C/C=C(/C)C(=O)O[C@H]1CC[C@@]2(C)[C@@H]3CC[C@H]4[C@]5(O)C[C@H](O)[C@@]6(O)[C@@H](CN7C[C@@H](C)CC[C@H]7[C@@]6(C)O)[C@]5(O)C[C@@]42O[C@]13O` the solubility was 963 µM (≈ 570 µg/mL).
In the case of `CC(Cl)=CCl`, the solubility is reported as 24300 µM (≈ 2700 µg/mL).
For `CCOP(=O)(OC=CCl)OCC`, the solubility was 46600 µM (≈ 10000 µg/mL).
With `Cc1nn(-c2ccccc2)c(C)c1N=O` the solubility was 184 µM (≈ 37 µg/mL).
